The text below walks through data of patent publication US12012467B2, “Small molecule DCN1 inhibitors and therapeutic methods using the same” (THE REGENTS OF THE UNIVERSITY OF MICHIGAN, priority 2017, dated 2024).

Square brackets hold non-standard residues; d marks the D form. Peptide text beside a SMILES is read from it. * marks the point of attachment. Ala(6-iPr-benzothiazol-2-yl) = CC(C)c1ccc2nc(C[C@H](N)C(=O)O)sc2c1; 2Nal = N[C@@H](Cc1ccc2ccccc2c1)C(=O)O; Propionyl = CCC(=O)*

Chain of DCN1 (Q96GG9 58-259): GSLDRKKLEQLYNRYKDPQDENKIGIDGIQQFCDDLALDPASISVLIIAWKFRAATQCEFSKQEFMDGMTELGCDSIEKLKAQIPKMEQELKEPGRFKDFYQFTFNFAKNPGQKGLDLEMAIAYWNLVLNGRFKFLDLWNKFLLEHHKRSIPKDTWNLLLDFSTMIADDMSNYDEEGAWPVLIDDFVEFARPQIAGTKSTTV

The target in the first test is DCN1 (Homo sapiens (Human), UniProt Q96GG9). The test is described as follows: Competitive FP binding assay. Particulars: bounds given in μM; read-out: Binding affinity to DCN1 (IC50). In a few lines:
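FP competition with DCN1 in 100 mM phosphate pH 6.5, 0.02% Tween-20, 2% DMSO, probe 5 nM final. Equilibrated 30 min at room temperature with shaking. DCN1 was His6-tagged (uncleaved), expressed in E. coli Rosetta2 and purified by Ni-NTA and gel filtration.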
`CCC(=O)N[C@@H](Cc1nc(C)c(-c2cccc(C(F)(F)F)c2)s1)C(=O)N[C@H](CN)Cc1ccccc1` [Example 233]: the 50% inhibitory concentration (IC50) is > 10 µM.
Turning to `CCC(=O)N[C@@H](Cc1nc(C)c(-c2ccncc2)s1)C(=O)N[C@H](CN)Cc1ccccc1` [Example 230], the IC50 is > 10 µM.
Take `NCCNC(=O)[C@H](Cc1nc2ccc(Cl)cc2s1)NC(=O)CCOc1ccccc1` [Example 237]: the IC50 was > 10 µM.
With `CCC(=O)N[C@@H](Cc1nc2ccc(Cl)cc2s1)C(=O)N[C@@H](C[C@H]1CC[C@H](CNC(=O)COCCOCCOCCNC(=O)CCCC[C@@H]2SC[C@@H]3NC(=O)N[C@@H]32)CC1)C(=O)N[C@@H](CCCCN(C)C)C(=O)N[C@@H]1CCOc2ccccc21` [DI-427biotin (NC)], the IC50 was > 10 µM.
Consider `CN(C)CCCC[C@H](NC(=O)[C@@H](NC(=O)[C@@H](N)Cc1nc2ccc(Cl)cc2s1)C1CCCC1)C(=O)N[C@@H]1CCOc2ccccc21` [Example 205], for which the IC50 was > 10 µM.
In the case of `CCC(=O)N[C@H](CNC(=O)[C@H](N)C1CCCC1)Cc1nc2ccc(Cl)cc2s1` [Example 261], the IC50 was > 5 µM.
Consider `CCC(=O)N[C@@H](Cc1nc2ccc(C(C)C)cc2s1)C(=O)N[C@H](C(=O)NCCN1CCOCC1)C1CCNCC1` [Example 265], for which the IC50 is > 10 µM.
For `CC[C@H](C)[C@H](NC(=O)[C@H](Cc1ccc2ccccc2c1)NC(C)=O)C(=O)N[C@@H](CCCCN)C(=O)N[C@@H](CC(C)C)C(N)=O` [Example 1] (Ac-[2Nal]IKL-NH2), the IC50 was > 10 µM.
As to `CC[C@H](C)[C@H](NC(=O)[C@@H](N)Cc1ccc2ccccc2c1)C(=O)N[C@@H](CCCCN)C(=O)N[C@@H](CC(C)C)C(N)=O` [Example 142] (H-[2Nal]IKL-NH2), the IC50 was > 10 µM.
As for `CC(C)C(=O)N[C@@H](Cc1nc2ccc(C(C)C)cc2s1)C(=O)NCCN` [Example 95], the 50% inhibitory concentration (IC50) was > 10 µM.
On to `CCC(=O)N[C@@H](Cc1ccccn1)C(=O)N[C@H](C(=O)N[C@@H](CCCCN)C(=O)NC(c1ccccc1)c1ccccc1)[C@@H](C)CC` [Example 132], for which the IC50 is > 10 µM.
On to `COCCC(=O)N[C@@H](Cc1nc2ccc(Cl)cc2s1)C(=O)NCCN` [Example 236], for which the IC50 is > 10 µM.
As for `CCC(=O)N[C@@H](Cc1nc2ccc(C(C)C)cc2s1)C(=O)N[C@H](CN)Cc1ccccc1` (stereo in doubt) [Example 89], the half-maximal inhibitory concentration (IC50) was > 10 µM.
As for `CCC(=O)N[C@@H](Cc1nc2c(F)cccc2s1)C(=O)N[C@H](C(=O)N[C@@H](CCCCN)C(=O)NC(c1ccccc1)c1ccccc1)C1CCCC1` [Example 26], the 50% inhibitory concentration (IC50) is > 3 µM.

The same test, now with this note: read-out: Binding affinity to DCN1 (IC50 (nM)).
Consider `CCC(=O)N[C@@H](Cc1cn2cc(Cl)ccc2n1)C(=O)N[C@H](C(=O)N[C@@H](CCCCN)C(=O)N[C@@H]1CCOc2ccccc21)C1CCCC1` [Example 212], for which the IC50 is 0.0556 µM.
Regarding `CCC(=O)N[C@@H](Cc1ccc2ccccc2c1)C(=O)N[C@H](C(=O)N[C@@H](CCCCN)C(=O)N[C@H]1CCOc2ccccc21)[C@@H](C)CC` [Example 18], the IC50 came to 3.05 µM.
Still for that read-out and setting: under `CCC(=O)N[C@H](CNC(=O)Cc1ccccn1)Cc1nc2ccc(Cl)cc2s1` [Example 257] stands 3.45 µM; under `CC[C@H](C)[C@H](NC(=O)[C@H](Cc1nc2ccc(C(C)C)cc2s1)NC(C)=O)C(N)=O` [Example 7, (2S,3S)-2-((S)-2-acetamido-3-(6-isopropylbenzo[d]thiazol-2-yl)propanamido)-3-methylpentanamide], 1.04 ± 0.128 µM.
For the compound `CCC(=O)N[C@@H](Cc1nc2cc(Cl)ccc2s1)C(=O)N[C@H](C(=O)N[C@@H](CCCCN)C(=O)NC(c1ccccc1)c1ccccc1)C1CCCC1` [Example 29], the 50% inhibitory concentration (IC50) was determined as 0.572 µM.
Same read-out and setting: for `CCC(=O)N[C@H](CNC(=O)CC1CCCC1)Cc1nc2ccc(Cl)cc2s1` [Example 255] the value was 0.802 µM; for `CC(C)c1ccc2nc(C[C@H](NC(=O)C3CC3)C(=O)N[C@H](CN)C3CCCCC3)sc2c1` [Example 262], 0.155 µM; for `CCC(=O)N[C@@H](Cc1nc2ccc(Cl)cc2s1)C(=O)N[C@H](C(=O)N[C@@H](CCCCN)C(=O)N[C@@H]1CNCc2ccccc21)C1CCCC1` [Example 39], 0.173 µM.
For `CCC(=O)N[C@@H](Cc1ccc2ccccc2c1)C(=O)N[C@H](C(=O)N[C@@H](CCCCN)C(=O)N[C@@H]1CCOc2ccccc21)C1CCCC1` [Example 149], the IC50 was 0.378 µM.
In the case of `CCC(=O)N[C@@H](Cc1nc2ccc(CC)cc2s1)C(=O)N[C@H](C(=O)N[C@@H](CC1CCNCC1)C(=O)N[C@@H]1CCOc2ccccc21)C1CCOCC1` [Example 192], the IC50 was determined as 0.171 µM.
For `CCC(=O)N[C@@H](Cc1nc2ccc(C(C)C)cc2s1)C(=O)N[C@H](CNC(=O)NC1CCN(C)CC1)C1CCCCC1` [Example 75], the concentration for half-maximal inhibition (IC50) worked out at 0.0756 µM.
For the compound `CCC(=O)N[C@H](CNC(=O)C1(N)CCOCC1)Cc1nc2ccc(C(C)C)cc2s1` [Example 112], the half-inhibitory concentration (IC50) was 5.06 µM.
With `CCC(=O)N[C@@H](Cc1nc(C)c(-c2ccc(Cl)cc2)s1)C(=O)N[C@H](CN)Cc1ccccc1` [Example 102], the 50% inhibitory concentration (IC50) was 1.28 µM.
`CCC(=O)N[C@@H](Cc1ccc2ccccc2c1)C(=O)N[C@H](C(=O)N[C@@H](CCCCN)C(=O)N[C@@H](c1ccccc1)c1cn(CCN)nn1)C1CCCC1` [Example 161]: the IC50 was 0.943 µM.
As for `CCC(=O)N[C@H](CNC(=O)Nc1ccccc1)Cc1nc2ccc(Cl)cc2s1` [Example 258], the IC50 amounted to 3.92 µM.
In the case of `CCC(=O)N[C@@H](Cc1nc2ccc(Cl)cc2s1)C(=O)N[C@H](CN)C1CCCC1` [Example 216], the IC50 is 0.559 µM.
Regarding `CCC(=O)N[C@@H](Cc1nc2ccc(C)cc2s1)C(=O)N[C@H](CN)[C@@H](C)CC` [Example 214], the 50% inhibitory concentration (IC50) came to 0.491 µM.
`CCC(=O)N[C@@H](Cc1nc2ccc(Cl)cc2s1)C(=O)N[C@H](CN)C1CCCCC1` [Example 217]: the half-inhibitory concentration (IC50) was 0.346 µM.
As to `CCC(=O)N[C@@H](Cc1nc2ccc(Cl)cc2s1)C(=O)N[C@@H](C[C@H]1CC[C@H](CN)CC1)C(=O)N[C@@H](CCCCN(C)C)C(=O)N[C@@H]1CCOc2ccccc21` [Example 45], the 50% inhibitory concentration (IC50) was 0.116 µM.
`CCC(=O)N[C@@H](Cc1nc2ccc(CC)cc2s1)C(=O)N[C@H](C(=O)N[C@@H](CCCCN)C(=O)N[C@@H]1CNCc2ccccc21)C1CCCC1` [Example 177]: the IC50 stood at 0.079 µM.
As to `CCC(=O)N[C@@H](Cc1cc2ccccc2cn1)C(=O)N[C@H](C(=O)N[C@@H](CCCCN)C(=O)NC(c1ccccc1)c1ccccc1)[C@@H](C)CC` [Example 131], the IC50 came to 2.61 µM.
For `CCC(=O)N[C@@H](Cc1nc2ccc(C)cc2s1)C(=O)N[C@@H](Cc1cccnc1)C(=O)N[C@@H](CCCCN)C(=O)N[C@@H]1CCOc2ccccc21` [Example 183], the IC50 amounted to 0.165 µM.
For `CCC(=O)N[C@@H](Cc1nc2ccc(C)cc2s1)C(=O)N[C@H](C(=O)N[C@@H](CCCCN)C(=O)N[C@@H]1CCOc2ccccc21)C1CCCC1` [Example 175], the IC50 came to 0.0906 µM.
With `CCC(=O)N[C@@H](Cc1nc2ccc(Cl)cc2s1)C(=O)N[C@H](CNC(=O)CCN1CCOCC1)Cc1ccccc1` [Example 92], the IC50 amounted to 0.244 µM.
Take `CCC(=O)N[C@@H](Cc1nc2ccc(C(C)C)cc2s1)C(=O)N[C@@H](Cc1ccccc1)C(=O)N[C@@H](CCCCN)C(=O)N[C@@H](CC(C)C)C(N)=O` [Example 290] (Propionyl-[Ala(6-iPr-benzothiazol-2-yl)]FKL-NH2): the IC50 amounted to 0.0556 µM.
Still for that read-out and setting: under `CCC(=O)N[C@@H](Cc1nc2ccc(C(C)C)cc2s1)C(=O)N[C@H](CNS(=O)(=O)C1CCNCC1)C1CCCCC1` [DI-777] stands 0.0553 µM; under `CCC(=O)N[C@@H](Cc1nc2ccc(C(C)C)cc2s1)C(=O)NC(CSc1nncn1C)C1CCCCC1` (stereo partly drawn) [Example 84], 0.242 µM.
On the same count and under the same terms, for `CCC(=O)N[C@@H](Cc1ccc2ccccc2c1)C(=O)N[C@@H](Cc1cccs1)C(=O)N[C@@H](CCCCN)C(=O)NC(c1ccccc1)c1ccccc1` [Example 24] the value was 0.967 µM; for `CCC(=O)N[C@@H](Cc1ccc2ccccc2c1)C(=O)N[C@H](C(=O)N[C@@H](CCCCN)C(=O)N[C@H](CN)c1ccccc1)C1CCCC1` [Example 150], 2 µM; for `CCC(=O)N[C@@H](Cc1ccc2ccccc2c1)C(=O)N[C@H](C(=O)N[C@@H](CCCCN(C)C)C(=O)NC(c1ccc(F)cc1)c1ccc(F)cc1)C1CCCC1` [Example 140], 0.483 µM.
For `CCC(=O)N[C@@H](Cc1ccc2ccccc2c1)C(=O)N[C@H](C(=O)N[C@@H](CCCCN)C(=O)N[C@@H]1CCOc2ccccc21)[C@@H](C)CC` [Example 17], the concentration for half-maximal inhibition (IC50) turned out to be 0.651 µM.
Turning to `CCC(=O)N[C@@H](Cc1nc2ccc(C(C)C)cc2s1)C(=O)N[C@H](CNC(=O)CN1CCOCC1)C1CCCCC1` [Example 57, (S)—N—((S)-1-cyclohexyl-2-(2-morpholinoacetamido)ethyl)-3-(6-isopropylbenzo[d]thiazol-2-yl)-2-propionamidopropanamide], the IC50 is 0.0704 µM.
As for `CCC(=O)N[C@@H](Cc1nc2ccc(Cl)cc2s1)C(=O)N[C@H](C(=O)N[C@@H](CCCCN(C)C)C(=O)N[C@@H]1CCOc2ccccc21)C1CCCC1` [Example 34], the half-inhibitory concentration (IC50) came out at 0.0179 µM.
Same read-out and setting: for `CCC(=O)N[C@@H](Cc1ccc2ccccc2c1)C(=O)N[C@H](C(=O)N[C@@H](CCCCN(C)C)C(=O)NC(c1ccccc1)c1ccccc1)C1CCCC1` [Example 146] the value was 0.464 µM; for `CCC(=O)N[C@@H](Cc1nc2ccc(CC)cc2o1)C(=O)N[C@H](C(=O)N[C@@H](CCCCN)C(=O)N[C@@H]1CCOc2ccccc21)C1CCCC1` [Example 195], 0.12 µM; for `CCC(=O)N[C@@H](Cc1nc2ccc(Cl)cc2s1)C(=O)N[C@H](C(=O)N[C@@H](CCCCN)C(=O)NCc1ccccn1)C1CCOCC1` [Example 241], 0.913 µM.
Consider `CCC(=O)N[C@@H](Cc1nc2ccc(C(C)C)cc2s1)C(=O)N[C@H](CNC(=O)C1CCNCC1)C1CCCCC1` [Example 62, N—((S)-2-cyclohexyl-2-((S)-3-(6-isopropylbenzo[d]thiazol-2-yl)-2-propionamidopropanamido)ethyl)piperidine-4-carboxamide], for which the IC50 stood at 0.0259 µM.

Broadly, the IC50 is the concentration that gives 50% inhibition.
